This passage reports TGI and GI50 results from PubChem BioAssay (NCI).

For the assay, the system named is P388/ADR leukemia. The assay can be described thus: NCI tumour cell line growth inhibition, 48 h.

Several values for one entry are separate records, joined by “and”; a condition that tells them apart may be missing. Equal values may be shown once.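 Compound exposure: 48 hours, 5 concentrations, 96-well plates. Abbreviation: GI50, concentration required for 50% inhibition of growth. TGI denotes the concentration required for complete inhibition of growth.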

Consider `COc1nc(C(Cl)(Cl)Cl)c(Cl)c(OC)c1Cl`, for which the TGI came to 85.9 µM.

Turning to `N[C@@H](Cc1ccc(N(CCCl)CCCl)cc1)C(=O)O`, the GI50 was 2.59 µM; the TGI was 37.7 µM and 76.3 µM.
